Experimental data published in PubChem BioAssay AID1259407 (Chemical Carcinogenesis Research Information System (CCRIS), 2018).
The source made the active and inactive calls. The rule behind the calls is not given here.

Test system: CCRIS mutagenicity, Ames/micronucleus/aberration tests
Assay: CCRIS mutagenicity studies

`C=CC#N` was tested, and the mutagenic call (End Point: IN VITRO CHROMOSOMAL ABERRATIONS, Test System: CHL CELLS, Metabolic Activation: RAT, LIVER, S-9, SODIUM PHENOBARBITAL AND 5,6-BENZOFLAVONE) was “active; positive (structural changes)”, the mutagenic call (End Point: IN VIVO CHROMOSOMAL ABERRATIONS, Test System: BONE MARROW CELLS, Species: MOUSE, Strain/Sex: C57B1/6/MALE, Route: IP INJECTION (ONCE)) was “inactive; negative” and the mutagenic call (Test System: AMES SALMONELLA TYPHIMURIUM, Strain/Indicator: TA97, Metabolic Activation: HAMSTER LIVER S-9, AROCLOR 1254 (10%), Method: PREINCUBATION) was “inactive; negative”. The mutagenic call (Test System: AMES SALMONELLA TYPHIMURIUM, Strain/Indicator: TA97, Metabolic Activation: NONE, Method: PREINCUBATION) was “inactive; negative”, the mutagenic call (Test System: AMES SALMONELLA TYPHIMURIUM, Strain/Indicator: TA97, Metabolic Activation: NONE, Method: STANDARD PLATE) was “inactive; negative” and the mutagenic call (Test System: AMES SALMONELLA TYPHIMURIUM, Strain/Indicator: TA97, Metabolic Activation: RAT LIVER S-9, AROCLOR 1254 (10%), Method: PREINCUBATION) was “inactive; negative”. The mutagenic call (Test System: AMES SALMONELLA TYPHIMURIUM, Strain/Indicator: TA97, Metabolic Activation: RAT, LIVER, S-9, AROCLOR 1254, Method: STANDARD PLATE) was “inactive; negative”, the mutagenic call (Test System: AMES SALMONELLA TYPHIMURIUM, Strain/Indicator: TA97, Metabolic Activation: S-9, Method: STANDARD PLATE) was “inactive; negative” and the mutagenic call (Test System: AMES SALMONELLA TYPHIMURIUM, Strain/Indicator: TA98, Metabolic Activation: HAMSTER LIVER S-9, AROCLOR 1254 (10%), Method: PREINCUBATION) was “inactive; negative”. For the same molecule, the mutagenic call (Test System: AMES SALMONELLA TYPHIMURIUM, Strain/Indicator: TA98, Metabolic Activation: NONE, Method: PREINCUBATION) was “inactive; negative”, the mutagenic call (Test System: AMES SALMONELLA TYPHIMURIUM, Strain/Indicator: TA98, Metabolic Activation: NONE, Method: STANDARD PLATE) was “inactive; negative” and the mutagenic call (Test System: AMES SALMONELLA TYPHIMURIUM; Strain/Indicator: TA98; Metabolic Activation: RAT LIVER S-9, AROCLOR 1254 910%), Method: PREINCUBATION) was “inactive; negative”. For the same molecule, the mutagenic call (Test System: AMES SALMONELLA TYPHIMURIUM, Strain/Indicator: TA98, Metabolic Activation: RAT, LIVER, S-9, AROCLOR 1254, Method: STANDARD PLATE) was “inactive; negative”, the mutagenic call (Test System: AMES SALMONELLA TYPHIMURIUM, Strain/Indicator: TA98, Metabolic Activation: S-9, Method: STANDARD PLATE) was “inactive; negative” and the mutagenic call (Test System: AMES SALMONELLA TYPHIMURIUM, Strain/Indicator: TA100, Metabolic Activation: HAMSTER LIVER S-9, AROCLOR 1254 (5%), Method: PREINCUBATION) was “inactive; negative”. For the same molecule, the mutagenic call (Test System: AMES SALMONELLA TYPHIMURIUM, Strain/Indicator: TA100, Metabolic Activation: HAMSTER LIVER S-9, AROCLOR 1254 (5 OR 10%), Method: PREINCUBATION) was “inactive; negative”, the mutagenic call (Test System: AMES SALMONELLA TYPHIMURIUM, Strain/Indicator: TA100, Metabolic Activation: HAMSTER LIVER S-9, AROCLOR 1254 (10% OR 30%), Method: PREINCUBATION) was “active; positive” and the mutagenic call (Test System: AMES SALMONELLA TYPHIMURIUM, Strain/Indicator: TA100, Metabolic Activation: HAMSTER LIVER S-9, AROCLOR 1254 (10%), Method: PREINCUBATION) was “active; positive”. The mutagenic call (Test System: AMES SALMONELLA TYPHIMURIUM, Strain/Indicator: TA100, Metabolic Activation: HAMSTER LIVER S-9, AROCLOR 1254 (30%), Method: PREINCUBATION) was “active; positive”, the mutagenic call (Test System: AMES SALMONELLA TYPHIMURIUM, Strain/Indicator: TA100, Metabolic Activation: HAMSTER, LIVER, S-9, AROCLOR 1254 (5, 10, 20%), Method: PREINCUBATION) was “active; positive” and the mutagenic call (Test System: AMES SALMONELLA TYPHIMURIUM, Strain/Indicator: TA100, Metabolic Activation: HAMSTER, LIVER, S-9, AROCLOR 1254 (20%), Method: PREINCUBATION) was “active; positive”. The mutagenic call (Test System: AMES SALMONELLA TYPHIMURIUM, Strain/Indicator: TA100, Metabolic Activation: NONE, Method: PREINCUBATION) was “inactive; negative”, the mutagenic call (Test System: AMES SALMONELLA TYPHIMURIUM, Strain/Indicator: TA100, Metabolic Activation: NONE, Method: STANDARD PLATE) was “inactive; negative” and the mutagenic call (Test System: AMES SALMONELLA TYPHIMURIUM, Strain/Indicator: TA100, Metabolic Activation: RAT LIVER S-9, AROCLOR 1254 (5, 10, OR 30%), Method: PREINCUBATION) was “inactive; negative”. For the same molecule, the mutagenic call (Test System: AMES SALMONELLA TYPHIMURIUM, Strain/Indicator: TA100, Metabolic Activation: RAT LIVER S-9, AROCLOR 1254 (5/%, 10% OR 30%), Method: PREINCUBATION) was “inactive; negative”, the mutagenic call (Test System: AMES SALMONELLA TYPHIMURIUM, Strain/Indicator: TA100, Metabolic Activation: RAT LIVER S-9, AROCLOR 1254 (10%), Method: PREINCUBATION) was “inactive; negative” and the mutagenic call (Test System: AMES SALMONELLA TYPHIMURIUM, Strain/Indicator: TA100, Metabolic Activation: RAT, LIVER, S-9, AROCLOR 1254, Method: FLUCTUATION) was “active; positive”. The mutagenic call (Test System: AMES SALMONELLA TYPHIMURIUM, Strain/Indicator: TA100, Metabolic Activation: RAT, LIVER, S-9, AROCLOR 1254, Method: STANDARD PLATE) was “inactive; negative”, the mutagenic call (Test System: AMES SALMONELLA TYPHIMURIUM, Strain/Indicator: TA100, Metabolic Activation: S-9, Method: STANDARD PLATE) was “inactive; negative” and the mutagenic call (Test System: AMES SALMONELLA TYPHIMURIUM, Strain/Indicator: TA102, Metabolic Activation: NONE, Method: STANDARD PLATE) was “inactive; negative”. The mutagenic call (Test System: AMES SALMONELLA TYPHIMURIUM, Strain/Indicator: TA102, Metabolic Activation: S-9, Method: STANDARD PLATE) was “inactive; negative”, the mutagenic call (Test System: AMES SALMONELLA TYPHIMURIUM, Strain/Indicator: TA1530, Metabolic Activation: RAT, LIVER, S-9, 3-METHYLCHOLANTHRENE OR PCB OR PHENOBARBITAL, Method: FLUCTUATION) was “active; positive” and the mutagenic call (Test System: AMES SALMONELLA TYPHIMURIUM, Strain/Indicator: TA1530, Metabolic Activation: RAT, LIVER, S-9, PCB OR PHENOBARBITAL, Method: DESICCATOR) was “active; positive”.
